In publication PMC9532399, “The lysosomal transporter TAPL has a dual role as peptide translocator and phosphatidylserine floppase” (Nature Communications, 2022):

Experiments:
Format in all cases: biochemical, mouse
TAPL Q298A mutant = assay: Peptide transport assay, Q298A; conditions: 9-mer 10 mM (sic), 3 mM ATP
Experimental: (§1) Proteoliposomes for peptide transport assays were prepared according to the protocol of Zhao et al., with some modifications. Briefly, E. coli polar lipid extract dissolved in chloroform was dried under a gentle stream of nitrogen. The thin film of lipids was placed under a desiccator overnight to completely remove residual chloroform and then hydrated in 1X PBS buffer pH 7.4 (137 mM NaCl, 2.7 mM KCl, 8 mM Na2HPO4, and 2 mM KH2PO4) with 10 mM MgCl2 and 5% (v/v) glycerol. After water bath sonication at 22 °C for 5 min (Powersonic 610, KLEENTEK), the lipid solution was extruded using a Mini-Extruder equipped with a polycarbonate membrane filter (200 nm pore) (Avanti Polar Lipids, Inc.) to obtain unilamellar vesicles, which were destabilized with 0.36% (w/v) DM. The DM-purified protein and lipid suspension were mixed in a 1:50 (w/w) ratio. After incubation at 4 °C for 2 h, the mixture was treated with Bio-Beads SM-2 resin (60 and 120 mg, see above) at 4 °C for a total of 18 h to remove detergent. The proteoliposomes were collected by centrifugation at 200,000×g for 1.5 h at 4 °C and resuspended in the buffer described above.
(§2) The peptide transport activity of ΔTMD0 was measured as described previously. Briefly, 50 μL of ΔTMD0-loaded proteoliposomes (~0.6 μg protein) were added into 200 μL reaction buffer containing 1X PBS pH 7.4, 3 mM ATP, and 10 mM MgCl2 in the presence or absence of 10 μM 5-IAF-labeled peptides. To investigate transport activity, the mixture was incubated at 37 °C for 10 min. The reaction was terminated by incubating the mixture for 20 min on ice. Proteoliposomes were collected by centrifugation at 200,000×g for 30 min and then washed twice with 1X PBS. The proteoliposomes were completely disrupted by adding 10% (w/v) SDS solution (final concentration, 2%). The transported peptide was measured using a microplate reader (Gemini XPS) with excitation at 485 nm and emission at 520 nm.

TAPL N301A mutant = assay: Peptide transport assay, N301A; conditions: 9-mer 10 mM (sic), 3 mM ATP
Experimental: as §1, §2

TAPL E664Q mutant = assay: Dithionite-based flip-flop assay, E664Q proteoliposomes; conditions: for NBD*-PS fluorescence intensity (net percentage transported): E664Q
Experimental: All lipids used in reconstitution were purchased from Avanti Polar Lipids, Inc. (purity > 99%). The in vitro flip–flop assay was performed using NBD* dye-labeled proteoliposomes as described previously. Briefly, E. coli polar lipids and egg PC were mixed in a 1:1 molar ratio, and 0.5% (mol/mol) NBD*-lipid was added. The lipid mixture was then dried under nitrogen gas. The NBD*-lipids used were 18:1-06:0 NBD*-PS (1-oleoyl-2-{6-[(7-nitro-2-1,3-benzoxadiazol-4-yl)amino]hexanoyl}-sn-glycero-3-phosphoserine), 18:1-06:0 NBD*-PC (1-oleoyl-2-{6-[(7-nitro-2-1,3-benzoxadiazol-4-yl)amino]hexanoyl}-sn-glycero-3-phosphocholine), 18:1-06:0 NBD*-PG (1-oleoyl-2-{6-[(7-nitro-2-1,3-benzoxadiazol-4-yl)amino]hexanoyl}-sn-glycero-3-[phospho-rac-(1-glycerol)]), 18:1-06:0 NBD*-PE (1-oleoyl-2-{6-[(7-nitro-2-1,3-benzoxadiazol-4-yl)amino]hexanoyl}-sn-glycero-3-phosphoethanolamine), and 25-NBD*-Cholesterol (25-[N-[(7-nitro-2-1,3-benzoxadiazol-4-yl)methyl]amino]−27-norcholesterol). Thin lipid films were solubilized in 20 mM HEPES–NaOH pH 8.0, 200 mM NaCl and 5% (v/v) glycerol, incubated at RT for 30 min and subjected to 5 freeze–thaw cycles. After extrusion with a Mini-Extruder at 65 °C, final lipid concentrations were determined by phosphorus assays. Briefly, 10 μL of extruded lipid was added to 10 μL of 2% (w/v) ammonium molybdate and 300 μL of concentrated perchloric acid. The mixture was heated at 250 °C for 30 min, then cooled to RT and mixed with 1.5 mL of 0.4% (w/v) ammonium molybdate and 250 μL of 9% (w/v) L-ascorbic acid. It was again heated at 100 °C for 6 min and cooled to RT. Lipid concentrations were calculated from the absorbance at 820 nm using a standard curve prepared with NaH2PO4 solution. After accurately determining the lipid concentration, DM-purified protein and 5 mM lipid suspension (solubilized in 5 mM DM) were mixed 1:25 (w/w). […]
To measure the flip–flop activity, 10 μL of 2 mM NBD*-labeled proteoliposomes were added to 100 μL of reaction buffer (20 mM HEPES–NaOH pH 8.0, 200 mM NaCl, 5 mM ATP and 5% (v/v) glycerol) in the presence of 2 mM MgCl2 (or NaCl), and incubated at 37 °C for 1 h. The mixture was transferred to a 96-well plate and time-dependent fluorescence (λex/λem = 460/538 nm) was recorded every 30 s for 26 min using a fluorescence spectrophotometer (Gemini XPS). After the baseline fluorescence had stabilized, 10 mM sodium dithionite was added to quench the fluorescence of NBD*-lipid present in the outer leaflets of the liposomes. The initial rapid drop and subsequent slow decline in fluorescence intensity were monitored. […] The net percentage of NBD*-lipid translocated across the lipid bilayer was calculated from the following equation[72]: the percentage of protected NBD*-lipid in the inner leaflet = [(FD−F0)/(FT−F0)]×100, and that of accessible NBD*-lipid in the outer leaflet = [(FT−FD)/(FT−F0)]×100, where FT is the total fluorescence of the sample before the addition of dithionite, FD is the fluorescence of the sample after quenching with dithionite, and F0 is any residual fluorescence of the sample after solubilization with Triton X-100. Fluorescence values (FT, FD, F0) were calculated as the averages of 5 points on the respective plateau lines. The ΔTMD0-mediated lipid floppase activity was determined by subtracting the percentage of NBD*-lipid fluorescence measured in the presence of Na^+/ATP from that measured in the presence of Mg^2+/ATP.

Compound: RRYQNSTC^5-IAFL [9-mer, 5-IAF-labeled peptide of 9 residues (RRYQNSTC^5-IAFL)]
- Transport activity (TAPL Q298A mutant; replicate I): 88.0035%
- Transport activity (TAPL Q298A mutant; replicate II): 84.2917%
- Transport activity (TAPL Q298A mutant; replicate III): 85.5798%
- Transport activity (TAPL Q298A mutant; wild-type = 100%, mean n=3): 85.9583%
- Transport activity (TAPL N301A mutant; replicate I): 112.671%
- Transport activity (TAPL N301A mutant; replicate II): 153.066%
- Transport activity (TAPL N301A mutant; replicate III): 131.453%
- Transport activity (TAPL N301A mutant; wild-type = 100%, mean n=3): 132.396%

Compound: CCCCCCCC/C=C\CCCCCCCC(=O)OC[C@H](COP(=O)(O)OC[C@H](N)C(=O)O)OC(=O)CCCCCNc1ccc([N+](=O)[O-])c2nonc12 [NBD*-PS, 1-oleoyl-2-{6-[(7-nitro-2-1,3-benzoxadiazol-4-yl)amino]hexanoyl}-sn-glycero-3-phosphoserine]
- NBD*-PS fluorescence intensity (net percentage transported) (TAPL E664Q mutant; Mg2+/ATP minus Na+/ATP, no peptide, no POPS, mean n=3): 1.892%
- NBD*-PS fluorescence intensity (net percentage transported) (TAPL E664Q mutant; replicate I): 1.638%
- NBD*-PS fluorescence intensity (net percentage transported) (TAPL E664Q mutant; replicate II): 1.974%
- NBD*-PS fluorescence intensity (net percentage transported) (TAPL E664Q mutant; replicate III): 2.062%
- movement of NBD*-PS to the inner leaflet (TAPL E664Q mutant; catalytically inactive E664Q mutant): ~ 1.9%
